Here are results for 22 molecules from paper PMC5696560 (Bioorganic & Medicinal Chemistry Letters, 2017).

The subject of data set [1] is M.tb strain H37Rv. Kind of data set: MICs determined at Tibotec (slightly different protocol). Type of data set: cell-based. As to conditions: Mycobacterium tuberculosis, MICs determined at Tibotec (Mechelen, Belgium), read-out: MIC90 (MABA, footnote d). An excerpt: Given that good activity had been reported for furan 2 (albeit in M. smegmatis),[11] we evaluated a series of both 2- and 3-furyl analogues bearing different C-unit substituents.

The test system of data set [2] is M.tb strain H37Rv. Put plainly: MABA: inhibition of growth of M.tb H37Rv under aerobic (replicating) conditions. Type of data set: cell-based. Particulars: for MIC90 / MIC: Mycobacterium tuberculosis, H37RV; for MIC: read-out: MIC90 MABA; for anti-M.tb activity (in words): M.tb H37Rv, comparison with 1.
Data set [3] concerns M.tb strain H37Rv. Put plainly: LORA: inhibition of growth of M.tb H37Rv under non-replicating conditions. As to conditions: Mycobacterium tuberculosis. In kind it is cell-based. The protocol:
The compounds were evaluated for their inhibition of growth (measured as MIC90 values in µg/mL) against M.tb (strain H37Rv) under both replicating (MABA)[16] or non-replicating (LORA)[17] conditions. […] In a search for less lipophilic analogues, we prepared and evaluated compounds where this phenyl B-ring unit was replaced with different heterocycles of varying lipophilicity (Table 1).

A short description of data set [4]: in vitro. As to conditions: human, human liver microsomes.
The conditions of data set [5]: human, microsomes.
Data set [6] concerns the target CYP 3A4 (Homo sapiens, UniProt P08684). Kind of data set: Inhibition of CYP 3A4. Type of data set: in vitro ADME. Particulars: 20 min exposure.

Values after ≈ are worked out from the molar mass of the structure shown.

Sequence of CYP 3A4 (P08684 whole entry, species assumed): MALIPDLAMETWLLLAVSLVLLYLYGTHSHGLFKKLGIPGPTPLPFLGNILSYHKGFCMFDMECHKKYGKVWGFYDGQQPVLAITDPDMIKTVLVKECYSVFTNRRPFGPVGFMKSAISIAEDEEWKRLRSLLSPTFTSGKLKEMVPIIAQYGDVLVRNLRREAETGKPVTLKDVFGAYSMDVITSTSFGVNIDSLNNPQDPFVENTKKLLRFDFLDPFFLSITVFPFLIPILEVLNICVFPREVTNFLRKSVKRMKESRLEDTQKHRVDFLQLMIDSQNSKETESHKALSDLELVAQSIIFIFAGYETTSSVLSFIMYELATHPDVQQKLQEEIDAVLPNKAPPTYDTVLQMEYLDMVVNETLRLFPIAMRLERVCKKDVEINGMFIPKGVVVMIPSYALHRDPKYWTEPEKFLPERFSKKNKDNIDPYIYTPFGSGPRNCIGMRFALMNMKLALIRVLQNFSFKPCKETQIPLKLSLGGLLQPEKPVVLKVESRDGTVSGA

Consider `COc1ncccc1C(c1cc2cc(Br)ccc2nc1OC)C(O)(CCN(C)C)c1cccc(F)c1` (centres unmarked) [Compound 29], for which, in data set [1], the MIC90 stood at 0.12 µg/mL (≈ 0.216 µM).

With `COc1cccc([C@](O)(CCN(C)C)[C@H](c2cncc(C)c2)c2cc3cc(Br)ccc3nc2OC)c1` [Compound 40], the MIC90 was found to be 1.9 µg/mL (≈ 3.45 µM) in data set [2] and 2.2 µg/mL (≈ 4 µM) in data set [3].

Take `COc1nc2ccc(Br)cc2cc1C(c1ccoc1)C(O)(CCN(C)C)c1ccccn1` (centres unmarked) [Compound 28]: the MIC90 in data set [1] amounted to 1.8 µg/mL (≈ 3.63 µM).

Consider `COc1nc2ccc(Br)cc2cc1[C@@H](c1ccc(SC)nc1)[C@@](O)(CCN(C)C)c1cccc(F)c1` [Compound 38], for which the results for the MIC90 in data set [2] and in data set [3] were 0.14 µg/mL (≈ 0.245 µM) and 0.37 µg/mL (≈ 0.649 µM), respectively.

As for `COc1nc2ccc(Br)cc2cc1[C@@H](c1cc(C)sc1C)[C@@](O)(CCN(C)C)c1cccnc1OC` [Compound 8], the MIC90 in data set [2] stood at 0.12 µg/mL (≈ 0.21 µM); in data set [3] it was 0.2 µg/mL (≈ 0.351 µM). The MIC in data set [2] was in the range of 0.05 to 0.58 µg/mL (≈ 0.0876 to 1.02 µM).

As to `COc1nc2ccc(Br)cc2cc1[C@@H](c1ccnc(OC)c1OC)[C@@](O)(CCN(C)C)c1cccc(F)c1` [Compound 44], the MIC90 in data set [2] amounted to 0.02 µg/mL (≈ 0.0342 µM); in data set [3] it was 0.07 µg/mL (≈ 0.12 µM).

In data set [2], `CCN(CC)c1ccc([C@H](c2cc3cc(Br)ccc3nc2OC)[C@@](O)(CCN(C)C)c2cccc(F)c2)cn1` [Compound 37] had an MIC90 of 0.02 µg/mL (≈ 0.0336 µM).

With `COc1nc2ccc(Br)cc2cc1C(c1ccoc1)C(O)(CCN(C)C)c1cccc(OC(F)(F)F)c1` (centres unmarked) [Compound 25], in data set [1], the MIC90 stood at 0.76 µg/mL (≈ 1.31 µM).

Consider `COc1ncccc1[C@H](c1cc2cc(C#N)ccc2nc1OC)[C@@](O)(CCN(C)C)c1cccc(C)c1` [Compound 31], for which the figures for the MIC90 in data set [2] and in data set [3] were 0.3 µg/mL (≈ 0.604 µM) and 0.15 µg/mL (≈ 0.302 µM), respectively.

As for `COc1nc2ccc(Br)cc2cc1C(c1ccco1)C(O)(CCN(C)C)c1cccc(C#N)c1` (centres unmarked) [Compound 21], the MIC90 in data set [1] stood at 1.96 µg/mL (≈ 3.77 µM).

`COc1nc2ccc(Br)cc2cc1C(c1ccoc1)C(O)(CCN(C)C)c1cccc(F)c1` (centres unmarked) [Compound 22, 1-(6-Bromo-2-methoxyquinolin-3-yl)-4-(dimethylamino)-2-(3-fluorophenyl)-1-(furan-3-yl)butan-2-ol]: the MIC90 in data set [1] was 0.74 µg/mL (≈ 1.44 µM).

In the case of `COc1nc2ccc(C#N)cc2cc1[C@@H](c1cc(C)sc1C)[C@@](O)(CCN(C)C)c1cncc(C)c1` [Compound 7], in data set [2], the “anti-M.tb activity (in words)” value was “less active”, the MIC90 came to 1.94 µg/mL (≈ 3.87 µM) and the MIC fell in the range of 0.05 to 0.58 µg/mL (≈ 0.0999 to 1.16 µM). The MIC90 in data set [3] came to 1.1 µg/mL (≈ 2.2 µM).

With `COc1ccc([C@H](c2cc3cc(Br)ccc3nc2OC)[C@@](O)(CCN(C)C)c2cccnc2OC)s1` [Compound 13], in data set [2], the “anti-M.tb activity (in words)” value was “effective inhibitors” and the MIC90 came to 0.24 µg/mL (≈ 0.419 µM). In data set [3], this molecule had an MIC90 of 0.53 µg/mL (≈ 0.926 µM).

As to `COc1nc2ccc(Br)cc2cc1C(c1ccco1)C(O)(CCN(C)C)c1ccccn1` (centres unmarked) [Compound 20], the MIC90 in data set [1] was found to be 1.95 µg/mL (≈ 3.93 µM).

On to `COc1nc2ccc(Br)cc2cc1C(c1ccoc1)C(O)(CCN(C)C)c1cccc(F)n1` (centres unmarked) [Compound 24], for which, in data set [1], the MIC90 amounted to 0.68 µg/mL (≈ 1.32 µM).

Regarding `COc1ncccc1[C@H](c1cc2cc(Br)ccc2nc1OC)[C@@](O)(CCN(C)C)c1cccc(C)c1` [Compound 30], the MIC90 was 0.13 µg/mL (≈ 0.236 µM) in data set [2] and 0.25 µg/mL (≈ 0.454 µM) in data set [3].

Turning to `COc1cccc([C@](O)(CCN(C)C)[C@@H](c2cc3cc(Br)ccc3nc2OC)c2cc(C)sc2C)c1OC` (racemic) [Compound 4], the MIC90 was found to be 0.5 µg/mL (≈ 0.834 µM) in data set [2] and 0.27 µg/mL (≈ 0.45 µM) in data set [3]. The MIC in data set [2] was 0.05 to 0.58 µg/mL (≈ 0.0834 to 0.967 µM).

As to `COc1nc2ccc(C#N)cc2cc1[C@@H](c1ccnc(OC)c1OC)[C@@](O)(CCN(C)C)c1cccc(C)c1` [Compound 46], the MIC90 in data set [2] came out at 0.15 µg/mL (≈ 0.285 µM); in data set [3], 0.14 µg/mL (≈ 0.266 µM).

As to `COc1nc2ccc(Br)cc2cc1C(c1ccoc1)C(O)(CCN(C)C)c1cccc2c1OCO2` (centres unmarked) [Compound 27], the MIC90 in data set [1] was found to be 0.9 µg/mL (≈ 1.67 µM).

Turning to `COc1nc2ccc(C#N)cc2cc1[C@@H](c1cc(C)c(C)s1)[C@@](O)(CCN(C)C)c1cccc(F)c1` [Compound 10], in data set [2], the “anti-M.tb activity (in words)” value was “equally potent”, the MIC90 is 0.05 µg/mL (≈ 0.0993 µM) and the MIC was 0.05 to 0.58 µg/mL (≈ 0.0993 to 1.15 µM). Also, the MIC90 in data set [3] stood at 0.2 µg/mL (≈ 0.397 µM).

As to `COc1nc2ccc(Br)cc2cc1C(c1ccco1)C(O)(CCN(C)C)c1cccc2c1OCO2` (centres unmarked) [Compound 19], the MIC90 in data set [1] was 0.69 µg/mL (≈ 1.28 µM).

In data set [4], `COc1nc2ccc(Br)cc2cc1[C@@H](c1cccnc1N(C)C)[C@@](O)(CCN(C)C)c1cccc(F)c1` [Compound 35] registered a half-life of 15 min. The results for the MIC90 in data set [2] and in data set [3] were 0.18 µg/mL (≈ 0.317 µM) and 0.2 µg/mL (≈ 0.352 µM), respectively. Besides, the Clint in data set [5] is on record as 45 µL/min/mg/protein. Further, the IC50 in data set [6] was greater than 50 µM.
